{"source": "patent US20220348565A1", "about": "“PHARMACEUTICAL COMPOUNDS” (SENTINEL ONCOLOGY LIMITED, priority 2019, published 2022)", "key": {"[1]": {"system": "HCT116 xenograft tumours", "test": "HCT116 subcutaneous xenograft model", "type": "in vivo, Male athymic nude mice", "conditions": "oral 100 mg/kg on days 1, 8 and 15; day 20", "method": "Male athymic nude mice bearing HCT116 xenograft tumours were give an oral dose of 100 mg/kg atropisomer A-2 on days 1, 8 and 15 and the tumour volumes were measured over 3 weeks. Tumour volumes in a control group of tumour-bearing mice, who had received vehicle only at the same time points were also measured."}, "[2]": {"test": "Mouse PK, plasma after i.v. and p.o. dosing (oral bioavailability)", "type": "in vivo, Male CD-1 mice", "conditions": "for half-life: read-out: T ½ (converted)", "method": "(§1) Atropisomers A-2 and A-3 were evaluated in an in vivo mouse model to determine brain and plasma concentrations following p.o. and i.v. dosing.\n(§2) Male CD-1 mice were dosed with the compounds of Examples A-2 and A-3, either by i.v. administration (2 mg/kg) or by p.o. administration (10 mg/kg). Eight samples were taken for analysis in the i.v. leg at 2, 10, 30 min, 1, 2, 4, 8, and 24 (for i.v) and 9 samples in the p.o. leg at 15, 30 min, 1, 2, 4, 8, 24, 48 and 72 hrs.\n(§3) The compounds of Examples A-2 and A-3 were both formulated in 10% DMSO/90% hydroxypropyl-beta-cyclodextrin (20% w/v in water) for i.v. and p.o. dosing. N =3 mice per time point.\n(§4) Post dosing, terminal blood samples were taken from individual animals and delivered into labelled polypropylene tubes containing anticoagulant (EDTA). The samples were held on wet ice for a maximum of 30 min while sampling of all the animals in the cohort was completed. The blood samples were centrifuged for plasma (4° C., 21100 g for 5 min) and the resulting plasma transferred into corresponding labelled tubes. Terminal brains from each PO dosed animal were excised, rinsed with saline and placed into pre-weighed labelled polypropylene tubes and the samples re-weighed prior to storage.\n(§5) Quantitative bioanalysis was carried out using liquid chromatography—mass spectroscopy was performed. The results are shown in Tables 14, 15 and 16 below and in FIGS. 12 to 15."}, "[3]": {"system": "U87-Luc cells", "test": "U87-Luc orthotopic xenograft model", "type": "in vivo, male athymic nude mice", "conditions": "oral 100 mg/kg on days 1, 4, 7, 10 and 13; Day 15", "method": "U87-Luc cells were intracerebrally implanted into the brains of male athymic nude mice and tumour growth was monitored by bioluminescent signal. In the treatment group animals were given an oral dose of 100 mg/kg of atropisomer A-2 on days 1, 4, 7, 10 and 13. The control group animals were given vehicle only."}, "[4]": {"test": "Chiral stability (interconversion) of isolated atropisomers on heating, chiral HPLC", "type": "physicochemical", "conditions": "for % ee of sample @ 40° C. / % ee sample @ 80° C.: EtOH solution, listed as A-2", "method": "Stability studies were carried out on the isolated atropisomers, atropisomers A-1 and A-2. To assess the interconversion of atropisomer A-1 and atropisomer A-2 chiral stability was monitored at 40° C. and 80° C. […] 1. 2×1 mg of pure atropisomer was dissolved in 1 mL of EtOH in a sealed-dram vial. 2. One set of vials was heated at 40° C. and another set at 80° C. 3. […] 4. Analysis was carried out at the following timepoints: 0 h, 24 h, 48 h, 72 h, 96 h and 240 h for the samples kept at 40° C. and 24 h, 96 h and 240 h for the samples kept at 80° C. using Chiral HPLC method 5"}, "[5]": {"system": "U87MG tumours", "test": "U87MG subcutaneous xenograft model", "type": "in vivo, Male athymic nude mice", "conditions": "oral 100 mg/kg on days 1, 4 and 7; day 13", "method": "Male athymic nude mice bearing U87MG tumours were given an oral dose of 100 mg/kg of atropisomer A-2 on days 1, 4 and 7 and the tumour volumes were measured over 20 days. Tumour volumes in a control group of tumour-bearing mice, who had received vehicle only at the same time points were also measured."}, "[6]": {"test": "Mouse PK, brain exposure after p.o. dosing", "type": "in vivo, Male CD-1 mice", "method": "as §1, §2, §3, §4, §5"}, "[7]": {"conditions": "mouse, 2 mg/kg, 2 mq/Kq IV, male CD-1 mice, plasma"}, "[8]": {"conditions": "mouse, 10 mg/kg, 10 mq/Kq PO, male CD-1 mice, plasma"}, "[9]": {"conditions": "mouse, po, brain exposure, p.o. 10 mg/kg, male CD-1 mice"}}, "data": [{"smiles": "CN(C)CCNC(=O)c1ccc(-c2ccc(-c3ccc(Cl)cc3)n2-c2ccccc2C(F)(F)F)cc1", "note": "(single isomer, unassigned) [Atropisomer A-2, 4-[5-(4-chlorophenyl)-1-[2-(trifluoromethyl)phenyl]pyrrol-2-yl]-N-[2-(dimethylamino)ethyl]benzamide]", "values": [{"measurement": "TGI", "setting": "[1]", "result": 60, "unit": "%"}, {"measurement": "CI", "setting": "[2]; 2 mq/Kq IV, male CD-1 mice, plasma", "result": 20.5, "unit": "mL/min/kg"}, {"measurement": "F", "setting": "[2]; 10 mq/Kq PO vs 2 mq/Kq IV, male CD-1 mice", "result": 76, "unit": "%"}, {"measurement": "AUC(0-inf)", "setting": "[2]; [7]", "result": 1620, "unit": "ng·h/mL"}, {"measurement": "Cmax", "setting": "[2]; [7]", "result": 278, "unit": "ng/mL"}, {"measurement": "half-life", "setting": "[2]; [7]", "result": 9, "unit": "h"}, {"measurement": "AUC(0-inf)", "setting": "[2]; [8]", "result": 6130, "unit": "ng·h/mL"}, {"measurement": "Cmax", "setting": "[2]; [8]", "result": 265, "unit": "ng/mL"}, {"measurement": "half-life", "setting": "[2]; [8]", "result": 10.7, "unit": "h"}, {"measurement": "AUC(0-t)", "setting": "[2]; mouse, po, plasma, p.o. 10 mg/kg, male CD-1 mice, read-out: AUClast plasma", "result": 6130, "unit": "ng·h/mL"}, {"measurement": "oral absorption / oral bioavailability (in words)", "setting": "[2]; oral dosing in mice", "result": "highly absorbed"}, {"measurement": "tumour bioluminescent signal treated versus control", "setting": "[3]", "result": "decrease in tumour signal"}, {"measurement": "% ee of sample @ 40° C.", "setting": "[4]; 0 h", "result": 97.20, "unit": "% ee"}, {"measurement": "% ee of sample @ 40° C.", "setting": "[4]; 24 h", "result": 97.34, "unit": "% ee"}, {"measurement": "% ee of sample @ 40° C.", "setting": "[4]; 48 h", "result": 97.30, "unit": "% ee"}, {"measurement": "% ee of sample @ 40° C.", "setting": "[4]; 72 h", "result": 97.24, "unit": "% ee"}, {"measurement": "% ee of sample @ 40° C.", "setting": "[4]; 96 h", "result": 97.14, "unit": "% ee"}, {"measurement": "% ee of sample @ 40° C.", "setting": "[4]; 10 days", "result": 97.46, "unit": "% ee"}, {"measurement": "% ee sample @ 80° C.", "setting": "[4]; 0 h", "result": 97.20, "unit": "% ee"}, {"measurement": "% ee sample @ 80° C.", "setting": "[4]; 24 h", "result": 95.62, "unit": "% ee"}, {"measurement": "% ee sample @ 80° C.", "setting": "[4]; 96 h", "result": 96.62, "unit": "% ee"}, {"measurement": "% ee sample @ 80° C.", "setting": "[4]; 10 days", "result": 97.12, "unit": "% ee"}, {"measurement": "atropisomer classification (LaPlante)", "setting": "[4]; from stability of isolated atropisomers", "result": "Class 3"}, {"measurement": "interconversion / racemization of atropisomers on heating", "setting": "[4]; heating for 10 days at 40° C. and 80° C.", "result": "no interconversion was observed"}, {"measurement": "tumour volume % T/C", "setting": "[5]", "result": 3.85, "unit": "%"}, {"measurement": "Kp", "setting": "[6]; male, CD-1, mouse, brain and plasma, 10 mg/kg, brain:plasma, oral dosing in mice, read-out: AUC B:P ratio", "result": 3.3}, {"measurement": "Cmax", "setting": "[6]; [9]", "result": 693, "unit": "ng/mL"}, {"measurement": "Tmax", "setting": "[6]; [9]", "result": 8, "unit": "h"}, {"measurement": "half-life", "setting": "[6]; mouse, po, brain exposure, p.o. 10 mg/kg, male CD-1 mice, read-out: T ½ (converted)", "result": 12.1, "unit": "h"}, {"measurement": "AUC(0-t)", "setting": "[6]; mouse, po, brain, p.o. 10 mg/kg, male CD-1 mice, read-out: AUClast brain", "result": 20500, "unit": "ng·h/mL"}, {"measurement": "brain exposure (in words)", "setting": "[6]; oral dosing in mice", "result": "high brain exposure"}]}]}
